Experiments:
APP/PS1 mice [1] = test: Radial-arm water maze (spatial working memory); format: in vivo, mouse; settings: for minimum time needed for a positive effect on spatial working memory: 3 mg/kg
From the text: Next, the effect of treatment with sildenafil was examined on spatial working memory, a type of short-term memory that can be studied with the radial-arm water maze test. […] Mice were required to learn and memorize the location of a hidden platform in one of the arms of a maze with respect to spatial cues. […] However, daily injections of sildenafil for 3 weeks immediately after the 4th acquisition trial ameliorated the behavioural performance of APP/PS1 mice (FIG. 2B).
The effects of one course of 3-week treatment with sildenafil on spatial working memory were next tested using the radial-arm water-maze task. There was a difference between the number of errors made by vehicle-treated APP/PS1 and WT mice (FIG. 3B)^A12. Administration of sildenafil for 3 weeks, 9-12 weeks prior to the testing, reduced the gap between the two groups without affecting performance of the WT animals (FIG. 3B).
Three-month-old APP/PS1 and WT mice were separated into 4 groups: APP/PS1 mice treated with vehicle, APP/PS1 mice treated with PDE inhibitor, WT mice treated with vehicle, and WT mice treated with PDE inhibitor. […] In the remaining experiments, sildenafil was injected via i.p. The drug was administered either acutely or for 1 course of 3 week treatment. For assessment of the short-term effects of sildenafil, the drug was given at a concentration of 3 mg/kg immediately after the training. This dose yields concentrations of ˜2.5 μM cGMP in the hippocampus^A53. For assessment of long-term effects, sildenafil was given daily by i.p. injection at a concentration of 3 mg/kg for 3 weeks and then treatment was stopped for 9-12 weeks prior to behavioral testing. Contextual and cued fear conditioning was performed for 3 days. Radial-arm water-maze (RAWM) was performed for 3 weeks. Then, the animals were sacrificed for electrophysiological recordings. To decide the time of administration of sildenafil in the acute experiments, a series of studies was performed in which the inhibitor was injected i.p. at 5 min before the electric shock or at 5 min before the first acquisition trial with the radial arm water maze. […] Thus, all the behavioral experiments on the acute effects of sildenafil reported in the result section were performed with injection after the training.
This is a type of short-term memory that can be studied with the RAWM test^12. Briefly, the RAWM consisted of a white tank (120 cm diameter) filled with water (24-25° C.) and made opaque by the addition of non-toxic white paint. Within the tank walls were positioned so as to produce six arms, radiating from a central area. Spatial cues were presented on the walls of the testing room. At the end of one of the arms was positioned a clear 10 cm submerged (1.5 cm) platform that remained in the same location for every trial in one day, but was moved about randomly from day to day. On each trial the mouse started the task from a different randomly chosen arm. […] Each trial lasted 1 min and errors were counted each time the mouse entered the wrong arm or needed more than 20 sec to reach the platform. After each error the mouse was pulled back to the start arm for that trial. After 4 consecutive acquisition trials, the mouse was placed in its home cage for 30 min, then returned to the maze and administered a 5th retention trial. Testing was considered completed as the WT mice made the same number of errors at the 4th and 5th trial. The scores for each mouse on the last three days of testing were averaged and used for statistical analysis.

APP/PS1 mice [2] = test: Contextual and cued fear conditioning; format: in vivo, mouse; settings: for effect on contextual fear memory in words: APP/PS1 (transgenic) mice
Method: Given that sildenafil reversed LTP deficits in 3-month-old APP/PS1, it was then tested whether the inhibitor reversed the cognitive defects in these animals. As reported above sildenafil offers the advantage of crossing the BBB and therefore it can be easily utilized in behavioural experiments. Three-month-old mice were divided into 4 groups: APP/PS1 with sildenafil, APP/PS1 with vehicle, WT with sildenafil and WT with vehicle. Sildenafil and vehicle control solutions were administered i.p. at a concentration of 3 mg/kg. This concentration was chosen based on previous studies showing that these amounts of sildenafil raise hippocampal cGMP levels and improve memory in aged rats^A6 and mice^A7 independent of vascular effects^A6. The effects of acute administration of sildenafil was first examined on fear-conditioning learning, a type of learning that is impaired in several AD mouse models^A14 and depends on hippocampus and amygdala. The hippocampus is indispensable for contextual fear conditioning^A15, a form of associative learning in which mice must associate a neutral stimulus with an aversive one. Mice were trained to associate neutral stimuli with an aversive one. They were placed in a new context (fear conditioning box), exposed to a white noise cue (CS) paired with a mild foot shock (US), and injected with sildenafil immediately after the training. Fear learning was assessed twenty-four hours later by measuring freezing behaviour—the absence of all movement except for that necessitated by breathing—in response to representation of the context or of the auditory cue within a completely different context. No difference was found in the freezing behaviour among the four groups of mice before the training phase (FIG. 2A). Twenty-four hours later, a decrease in the freezing behaviour of vehicle-treated APP/PS1 mice compared with that of vehicle-treated WT littermates in the analysis of the contextual learning was observed (FIG. 2A). […] Fear conditioning, a hippocampus-independent task A^15, was next tested and no difference in freezing among the 4 groups was found, as APP/PS1 mice are known to have a selective hippocampus-dependent impairment in associative learning^A14.
Sildenafil was tested to determine whether a brief course of treatment can provide long term benefits. The PDE5 inhibitor was examined to see if it maintains its protective effect against synaptic dysfunction and memory loss. In these experiments, both APP/PS1 and WT mice of 3 months of age were injected intraperitoneally with 3 mg/kg/day sildenafil for 3 weeks, then the treatment was stopped for 9-12 weeks prior to testing. The mice were next subjected to training for contextual learning. […] There were no differences between the 4 groups in the cued conditioning test.
Three-month-old APP/PS1 and WT mice were separated into 4 groups: APP/PS1 mice treated with vehicle, APP/PS1 mice treated with PDE inhibitor, WT mice treated with vehicle, and WT mice treated with PDE inhibitor. […] In the remaining experiments, sildenafil was injected via i.p. The drug was administered either acutely or for 1 course of 3 week treatment. For assessment of the short-term effects of sildenafil, the drug was given at a concentration of 3 mg/kg immediately after the training. This dose yields concentrations of ˜2.5 μM cGMP in the hippocampus^A53. For assessment of long-term effects, sildenafil was given daily by i.p. injection at a concentration of 3 mg/kg for 3 weeks and then treatment was stopped for 9-12 weeks prior to behavioral testing. Contextual and cued fear conditioning was performed for 3 days. Radial-arm water-maze (RAWM) was performed for 3 weeks. Then, the animals were sacrificed for electrophysiological recordings. To decide the time of administration of sildenafil in the acute experiments, a series of studies was performed in which the inhibitor was injected i.p. at 5 min before the electric shock or at 5 min before the first acquisition trial with the radial arm water maze. […]

[3] = treated at 3 months, tested at 6-8 months
[4] = 3 month-old APP/PS1, 3 mg/Kg i.p.
[5] = APP/PS1, 3 mg/Kg i.p. for 3 weeks at 3 months, tested 9-12 weeks later
[6] = WT, 3 mg/Kg i.p. for 3 weeks at 3 months, tested 9-12 weeks later
[7] = 3 month-old WT, sildenafil 3 mg/Kg or tadalafil 1 mg/Kg i.p.

COc1ccc(CNc2c(CO)cnc3c(C4CC4)cc(C#N)cc23)cc1Cl [YF012403, 4-(3-chloro-4-methoxybenzylamino)-8-cyclopropyl-3-(hydroxymethyl)-quinoline-6-carbonitrile]
effect on spatial working memory (RAWM) in words (APP/PS1 mice [1]; APP/PS1 (transgenic) mice): attenuated
effect on contextual fear memory in words (APP/PS1 mice [2]): attenuated

CCCc1nn(C)c2c(=O)[nH]c(-c3cc(S(=O)(=O)N4CCN(C)CC4)ccc3OCC)nc12 [sildenafil, 5-[2-ethoxy-5-(4-methyl-1-piperazinylsulphonyl)phenyl]-1-methyl-3-n-propyl-1,6-dihydro-7H-pyrazolo[4,3-d]pyrimidin-7-one]
minimum time needed for a positive effect on spatial working memory (APP/PS1 mice [1]; [3]): 2 weeks
minimum time needed for a positive effect on spatial working memory (APP/PS1 mice [1]; 3-month-old APP/PS1): 2 weeks
minimum concentration needed to improve spatial working memory (APP/PS1 mice [1]; 3-month-old APP/PS1, for 3 weeks): 3 mg/kg
RAWM errors, recall trial R (APP/PS1 mice [1]; [4]): 3.57±0.31 errors
RAWM errors, trial A1 (APP/PS1 mice [1]; [4]): 5.87±0.22 errors
RAWM errors, trial A4 (APP/PS1 mice [1]; [4]): 3.39±0.39 errors
RAWM errors, recall trial R (APP/PS1 mice [1]; 3 month-old WT, 3 mg/Kg i.p.): 1.9±0.35 errors
RAWM errors, trial A1 (APP/PS1 mice [1]; 3 month-old WT, 3 mg/Kg i.p.): 5.5±0.23 errors
RAWM errors, trial A4 (APP/PS1 mice [1]; 3 month-old WT, 3 mg/Kg i.p.): 1.5±0.21 errors
RAWM errors, recall trial R (APP/PS1 mice [1]; [5]): 3±0.75 errors
RAWM errors, trial A1 (APP/PS1 mice [1]; [5]): 6.16±0.39 errors
RAWM errors, trial A2 (APP/PS1 mice [1]; [5]): 4.16±0.53 errors
RAWM errors, trial A3 (APP/PS1 mice [1]; [5]): 3.5±0.41 errors
RAWM errors, trial A4 (APP/PS1 mice [1]; [5]): 2.83±0.61 errors
RAWM errors in the retention trial (APP/PS1 mice [1]; APP/PS1, injected i.p. 5 min before the first acquisition trial): ~5 errors
RAWM errors, recall trial R (APP/PS1 mice [1]; [6]): 2.33±0.36 errors
RAWM errors, trial A1 (APP/PS1 mice [1]; [6]): 6±0.29 errors
RAWM errors, trial A2 (APP/PS1 mice [1]; [6]): 3.22±0.56 errors
RAWM errors, trial A3 (APP/PS1 mice [1]; [6]): 2.5±0.36 errors
RAWM errors, trial A4 (APP/PS1 mice [1]; [6]): 1.83±0.16 errors
minimum concentration needed to improve spatial working memory (APP/PS1 mice [1]; [3]): 3 mg/kg
minimum time needed for a positive effect on contextual fear memory (APP/PS1 mice [2]; 3 mg/kg, treated at 3 months, tested at 6-8 months): 2 weeks
minimum concentration needed to improve contextual fear memory (APP/PS1 mice [2]; 3-month-old APP/PS1, acute): 3 mg/kg
contextual freezing time as % of vehicle-treated WT mice (APP/PS1 mice [2]; 3 month-old APP/PS1, sildenafil 3 mg/Kg i.p. after training, 24 hrs): about 87%
contextual freezing time (APP/PS1 mice [2]; 3 month-old APP/PS1, sildenafil 3 mg/Kg or tadalafil 1 mg/Kg i.p., 24 hrs after training): 28.95±3.94%
contextual freezing as % of vehicle-treated WT mice (APP/PS1 mice [2]; [7]): about 89%
contextual freezing time (APP/PS1 mice [2]; [7]): 30.1±3.11%
effect on cued conditioning in words (APP/PS1 mice [2]; 3 months old APP/PS1 and WT, 3 mg/kg): do not affect freezing during cued conditioning
effect on contextual fear memory in words (APP/PS1 mice [2]): complete
contextual freezing as % of vehicle-treated WT mice (APP/PS1 mice [2]; [5]): ~97%
contextual freezing time (APP/PS1 mice [2]; [5]): 30.32±1.98%
freezing time as % of vehicle-treated APP/PS1 mice (APP/PS1 mice [2]; APP/PS1, injected i.p. 5 min before the electric shock): ~90%
contextual freezing as % of vehicle-treated WT mice (APP/PS1 mice [2]; [6]): ~104%
contextual freezing time (APP/PS1 mice [2]; [6]): 32.41±1.88%
minimum concentration needed to improve contextual fear memory (APP/PS1 mice [2]; [3]): 3 mg/kg
